This note sets out measurements from ChEMBL document CHEMBL1148791, “High-throughput screening of drug-brain tissue binding and in silico prediction for assessment of central nervous system drug delivery” (J Med Chem, 2007).

Series [1] can be described thus: physchem. Conditions: buffer, pH 7.4.
The nature of series [2]: physchem.
Description: Acid dissociation constant, pKa of the compound
Series [3] can be described thus: Fraction unbound ligand in rat adrenal gland after 20 hrs. It counts as ADME, tissue-based. Particulars: adrenal gland tissue.
A short description of series [4]: Fraction unbound ligand in rat brain after 20 hrs. Type of series: ADME, tissue-based. Conditions: brain tissue.
Series [5] is described as follows: Fraction unbound ligand in rat brown fat tissue after 20 hrs. It counts as ADME, tissue-based, Adipose tissue.
Series [6] can be described thus: Fraction unbound ligand in rat lung after 20 hrs. Conditions: lung tissue. It counts as ADME, tissue-based.
For series [7] the following is noted: buffer, pH 7.4.

With `NC(=O)N1c2ccccc2C=Cc2ccccc21` [CARBAMAZEPINE], the pH-dependent lipophilicity (logD) in series [1] stood at 1.77. In series [1], `COc1ccc2c3c1O[C@H]1C(=O)CC[C@H]4[C@@H](C2)N(C)CC[C@]314` [HYDROCODONE] came in with a logD of 3.38. Further, the pKa in series [2] came to 8.43. The compound `O=C1CC2(CCCC2)CC(=O)N1CCCCN1CCN(c2ncccn2)CC1` [BUSPIRONE] displayed a pKa in series [2] of 7.8. As for `CCCC(C)(COC(N)=O)COC(=O)NC(C)C` (stereo unspecified) [CARISOPRODOL], the log distribution coefficient (logD) in series [1] came to 2.4. For `CC(C)NCC(O)COc1cccc2ccccc12` (stereo unspecified) [PROPRANOLOL], the free fraction (fraction unbound) at 20 h in series [3] came out at 0.01; in series [4] it was 0.021; in series [5], 0.097; in series [6], 0.053. With `OCCOCCN1CCN(C(c2ccccc2)c2ccc(Cl)cc2)CC1` (stereo unspecified) [HYDROXYZINE], the “Log D” value in series [7] was found to be 0.18. This compound also displayed a pKa in series [2] of 7.75.

In series [1], `Cc1ncc2n1-c1ccc(Cl)cc1C(c1ccccc1F)=NC2` [MIDAZOLAM] displayed a logD of 2.5. Moreover, the pKa in series [2] turned out to be 5.44. The matching figures for `COC(=O)[C@H](c1ccccc1)C1CCCCN1` (stereo partly specified) [METHYLPHENIDATE]: -0.15 and 9.24. In the case of `CN1CCN(C2=Nc3cc(Cl)ccc3Nc3ccccc32)CC1` [CLOZAPINE], the logD in series [1] came out at 3.46. `COc1ccc(C(CN(C)C)C2(O)CCCCC2)cc1` (stereo unspecified) [VENLAFAXINE] came in with a log distribution coefficient (logD) in series [1] of 0.88. In series [1], `Cc1nc2n(c(=O)c1CCN1CCC(c3noc4cc(F)ccc34)CC1)CCCC2` [RISPERIDONE] gave a logD of 1.66. On to `CN(C)CCC=C1c2ccccc2C=Cc2ccccc21` [CYCLOBENZAPRINE], for which the logD in series [1] came out at 2.92. In series [2], this compound yielded a pKa of 9.69. On to `CN(C)CCCN1c2ccccc2Sc2ccc(Cl)cc21` [CHLORPROMAZINE], for which, in series [1], the pH-dependent lipophilicity (logD) was 3.7. With `O=c1n(CCCN2CCN(c3cccc(Cl)c3)CC2)nc2ccccn12` [TRAZODONE], the logD in series [1] came out at 2.97. Besides, the pKa in series [2] worked out at 6.73. With `O=C(CCCN1CCC(O)(c2ccc(Cl)cc2)CC1)c1ccc(F)cc1` [HALOPERIDOL], in series [1], the pH-dependent lipophilicity (logD) worked out at 0.18.

With `Cc1ccc(-c2nc3ccc(C)cn3c2CC(=O)N(C)C)cc1` [ZOLPIDEM], the log distribution coefficient (logD) in series [1] was 2.35. The compound further yielded a pKa in series [2] of 6.02.

On to `Fc1ccc([C@@H]2CCNC[C@H]2COc2ccc3c(c2)OCO3)cc1` [PAROXETINE], for which the logD in series [1] amounted to 2.27. For the same compound, the pKa in series [2] came to 10.1. For the compound `COCCCC/C(=N\OCCN)c1ccc(C(F)(F)F)cc1` [FLUVOXAMINE], the pKa in series [2] stood at 9.4. `CNCCC=C1c2ccccc2CCc2ccccc21` [NORTRIPTYLINE]: the logD in series [1] amounted to 2.23. Besides, the pKa in series [2] worked out at 10.4.

The term logD denotes lipophilicity at a set pH, counting ionised and neutral species. A low value points to a more hydrophilic compound. As usually defined, the pKa is the pH at which an ionisable group is half protonated. Read a high pKa as a group that holds its proton tightly. The term fraction unbound denotes the share of the substance not bound to proteins or other matrix. The term Log D denotes lipophilicity at a set pH, counting ionised and neutral species. A lower Log D goes with lower lipophilicity.
